From ChEMBL document CHEMBL3769364, “Synthesis and structure-activity relationship studies of novel 3,9-substituted α-carboline derivatives with high cytotoxic activity against colorectal cancer cells” (Eur J Med Chem, 2016)

How the values were obtained:
[1] = Cytotoxicity against human Hep3B cells after 48 hrs by MTT assay
[2] = Cytotoxicity against human COLO205 cells after 48 hrs by MTT assay; conditions: COLO 205, 48 h
[3] = Cytotoxicity against human H460 cells after 48 hrs by MTT assay; conditions: NCI-H460, 48 h
[4] = test system: A498; experiment: Cytotoxicity against human A498 cells after 48 hrs by MTT assay; conditions: A498, 48 h
[5] = test system: Detroit 551; experiment: Cytotoxicity against human Detroit 551 cells after 48 hrs by MTT assay; conditions: Detroit 551, 48 h
[6] = Cytotoxicity against human HL60 cells after 48 hrs by MTT assay; conditions: HL-60, 48 h

SMILES	IC50 [1] [µM]	IC50 [2] [µM]	IC50 [3] [µM]	IC50 [4] [µM]	IC50 [5] [µM]	IC50 [6] [µM]
COC(=O)c1cnc2c(c1)c1ccccc1n2Cc1ccc2c(c1)OCO2	> 50	> 50	> 50	> 50	> 50	> 50
COC(=O)c1cnc2c(c1)c1ccccc1n2Cc1cccs1	> 50	> 50	> 50	> 50	> 50	> 50
COC(=O)c1cnc2c(c1)c1ccccc1n2Cc1ccccc1F	> 50	> 50	> 50	> 50	> 50	> 50
COC(=O)c1cnc2c(c1)c1ccccc1n2Cc1ccc(OC)cc1	> 50	> 50	> 50	> 50	–	> 50
COc1cc(Cn2c3ccccc3c3cc(C(=O)O)cnc32)cc(OC)c1OC	–	–	–	–	> 50	> 50
OCc1cnc2c(c1)c1ccccc1n2Cc1ccco1	> 50	> 50	> 50	> 50	> 50	> 50
COC(=O)c1cnc2c(c1)c1ccccc1n2Cc1ccco1	> 50	> 50	> 50	> 50	> 50	> 50
OCc1cnc2c(c1)c1ccccc1n2Cc1c(F)cccc1F	> 50	> 50	> 50	> 50	–	–
COC(=O)c1cnc2c(c1)c1ccccc1n2Cc1ccccc1	> 50	> 50	> 50	> 50	> 50	> 50
OCc1cnc2c(c1)c1ccccc1n2Cc1ccsc1	–	> 50	> 50	> 50	> 50	> 50
COC(=O)c1cnc2c(c1)c1ccccc1n2Cc1ccc(F)cc1F	> 50	> 50	> 50	> 50	> 50	> 50
COC(=O)c1cnc2c(c1)c1ccccc1n2Cc1cccc(Cl)c1Cl	> 50	> 50	> 50	> 50	> 50	–
OCc1cnc2c(c1)c1ccccc1n2Cc1ccc2c(c1)OCO2	> 50	> 50	> 50	> 50	–	–
O=C(O)c1cnc2c(c1)c1ccccc1n2Cc1ccccc1	> 100	> 50	> 100	> 50	> 100	> 100
COc1cc(Cn2c3ccccc3c3cc(C(=O)O)cnc32)cc(OC)c1	–	> 50	> 50	–	> 100	–
COC(=O)c1cnc2c(c1)c1ccccc1n2Cc1cccc(OC)c1	–	> 50	–	> 50	> 50	–
COC(=O)c1cnc2c(c1)c1ccccc1n2Cc1cc(F)ccc1F	> 50	> 50	> 50	> 50	–	–
COC(=O)c1cnc2c(c1)c1ccccc1n2Cc1c(F)cccc1F	> 50	> 50	> 50	> 50	> 50	> 50
OCc1cnc2c(c1)c1ccccc1n2Cc1ccc(Cl)c(Cl)c1	–	–	–	–	> 50	–
COC(=O)c1cnc2c(c1)c1ccccc1n2Cc1ccc(Cl)cc1	> 50	> 50	> 50	> 50	> 50	> 50
OCc1cnc2c(c1)c1ccccc1n2Cc1ccccc1Cl	–	> 50	–	–	–	–
COC(=O)c1cnc2c(c1)c1ccccc1n2Cc1ccc(Cl)c(Cl)c1	> 50	> 50	–	> 50	> 50	–
COC(=O)c1cnc2c(c1)c1ccccc1n2Cc1c(Cl)cccc1Cl	> 50	> 50	> 50	> 50	> 50	> 50
OCc1cnc2c(c1)c1ccccc1n2Cc1ccccc1	–	–	–	> 50	–	–

SMILES	IC50 [1] [µM]	IC50 [2] [µM]	IC50 [3] [µM]	IC50 [4] [µM]	IC50 [5] [µM]	IC50 [6] [µM]
COC(=O)c1cnc2c(c1)c1ccccc1n2Cc1ccccc1Cl	> 50	> 50	> 50	> 50	> 50	–
COC(=O)c1cnc2c(c1)c1ccccc1n2Cc1ccoc1	> 50	> 50	> 50	> 50	> 50	> 50
OCc1cnc2[nH]c3ccccc3c2c1	–	–	–	–	> 50	49.7
COC(=O)c1cnc2c(c1)c1ccccc1n2Cc1cc(OC)cc(OC)c1	–	–	–	> 50	–	–
COc1cccc(Cn2c3ccccc3c3cc(CO)cnc32)c1	–	–	–	–	> 50	–
COC(=O)c1cnc2[nH]c3ccccc3c2c1	> 50	> 50	–	–	> 50	–
COC(=O)c1cnc2c(c1)c1ccccc1n2Cc1ccsc1	> 50	> 50	> 50	> 50	> 50	> 50
OCc1cnc2c(c1)c1ccccc1n2Cc1ccc(Cl)cc1Cl	–	–	–	> 50	–	–
COC(=O)c1cnc2c(c1)c1ccccc1n2Cc1ccc(F)c(F)c1	> 50	> 50	> 50	> 50	–	–
OCc1cnc2c(c1)c1ccccc1n2Cc1ccoc1	> 50	> 50	> 50	> 50	> 50	> 50
COC(=O)c1cnc2c(c1)c1ccccc1n2Cc1ccc(Cl)cc1Cl	> 50	> 50	> 50	> 50	> 50	> 50
OCc1cnc2c(c1)c1ccccc1n2Cc1ccc(F)c(F)c1	> 50	–	> 50	> 50	–	–
OCc1cnc2c(c1)c1ccccc1n2Cc1cccs1	> 50	> 50	> 50	> 50	> 50	> 50
COC(=O)c1cnc2c(c1)c1ccccc1n2Cc1cc(OC)c(OC)c(OC)c1	–	–	–	> 50	> 50	–
OCc1cnc2c(c1)c1ccccc1n2Cc1c(Cl)cccc1Cl	–	> 50	–	> 50	–	> 50
COC(=O)c1cnc2c(c1)c1ccccc1n2Cc1cc(F)cc(F)c1	> 50	> 50	> 50	> 50	> 50	> 50
OCc1cnc2c(c1)c1ccccc1n2Cc1ccc(F)cc1	> 50	> 50	> 50	> 50	> 50	–
OCc1cnc2c(c1)c1ccccc1n2Cc1ccc(Cl)cc1	–	> 50	> 50	> 50	> 50	–
COc1ccc(Cn2c3ccccc3c3cc(CO)cnc32)cc1	> 50	–	> 50	–	> 50	–
COc1cc(Cn2c3ccccc3c3cc(CO)cnc32)cc(OC)c1	–	–	–	–	> 50	–
COC(=O)c1cnc2c(c1)c1ccccc1n2Cc1cccc(Cl)c1	> 50	> 50	–	> 50	> 50	–
COC(=O)c1cnc2c(c1)c1ccccc1n2Cc1ccc(F)cc1	> 50	> 50	> 50	> 50	> 50	> 50
OCc1cnc2c(c1)c1ccccc1n2Cc1ccc(F)cc1F	> 50	–	> 50	> 50	> 50	–
